6 compounds from patent US20230240953A1, “AN ANTIMICROBIAL COMPOSITION, PROCESS FOR PREPARING THE SAME AND METHOD OF USE THEREOF” (ISP INVESTMENTS LLC, priority 2020, published 2023) can be followed below.

In brackets after ≈: the same amount, converted by molar mass. Some results are limits rather than exact numbers.

What all share (type): cell-based
The subject of assay [1] is Aspergillus brasiliensis 16404. In words: Minimal inhibitory concentration (MIC), microplate broth dilution. The conditions noted are these: YMB, 10^5 cfu/ml, 4-5 days at 28° C., read-out: Minimal Inhibitory Concentrations (MICs) mean values, A. brasiliensis. The method, then:
(§1) Briefly, each active was dissolved and then serially diluted in DMSO using a 96-well dilution microplate. Automated liquid handler was then used to stamp multiple assay plates out of this dilution plate. The appropriate growth medium containing a desired microorganism was then added to each well of the plate. For bacterial strains, Trypticase Soy Broth (TSB) was used with the final cell density of the microorganisms, in each well, being 10^6 cfu/ml. For fungal strains, Yeast Malt Broth (YMB) was used with the final density of each microorganism being 10^5 cfu/ml. Bacterial plates were incubated for 48 hours at 35° C. and fungal plates were incubated for 4-5 days at 28° C. prior to being evaluated. The lowest concentration of each compound to inhibit any visible growth was defined as minimum inhibitory concentration (MIC). In some cases, the highest tested concentration of the active was limited by its solubility in water. Whenever MIC was greater than the highest tested concentration, it was reported as being equal to, or greater than (>) the previous hypothetical dilution.
A general note: In broth dilution the organism is exposed to a series of concentrations in liquid medium.

The subject of assay [2] is Burkholderia cepacia 25416. The description is as above. The settings on record: TSB, 10^6 cfu/ml, 48 hours at 35° C., read-out: Minimal Inhibitory Concentrations (MICs) mean values, B. cepacia. As for the experimental part:
as §1

For the next assay, the system named is Candida albicans 10231. The description is as above. The conditions noted are these: YMB, 10^5 cfu/ml, 4-5 days at 28° C., read-out: Minimal Inhibitory Concentrations (MICs) mean values, C. albicans. The method, then: as §1
Another assay deals with Escherichia coli 8739. The assay is described as above. The conditions noted are these: TSB, 10^6 cfu/ml, 48 hours at 35° C., read-out: Minimal Inhibitory Concentrations (MICs) mean values, E. coli. As for the experimental part:
as §1

Assay [3] relates to Pseudomonas aeruginosa 9027. Described as above. The conditions noted are these: TSB, 10^6 cfu/ml, 48 hours at 35° C., read-out: Minimal Inhibitory Concentrations (MICs) mean values, P. aeruginosa. As for the experimental part:
as §1

Assay [4] concerns Staphylococcus aureus 6538. The assay is described as above. The settings on record: TSB, 10^6 cfu/ml, 48 hours at 35° C., read-out: Minimal Inhibitory Concentrations (MICs) mean values, S. aureus. The method, then:
as §1

Assay [5] relates to Aspergillus brasiliensis 16404. The assay can be described thus: Checkerboard microplate synergy assay, compound A = HPB. Details: key to SI index (Synergy Index = Qa/QA+Qb/QB): SI = Qa/QA + Qb/QB (MICs in ppm); <1 synergy, =1 additive, >1 antagonism. The conditions noted are these: for Interaction / SI index (Synergy Index = Qa/QA+Qb/QB): HPB + compound B. The method, then: (§2) The synergistic antimicrobial effect was determined using a commonly accepted method described by Kull A. C, Eisman, P. C. Sylwestrowicz, H. D. and Mayer, R. L. 1961. Applied Microbiology, 9:538-541
(§3) Briefly, the standard checkerboard approach was used to make all the dilutions. HPB (compound A) solution was prepared and then serially diluted in DMSO using the 96-well dilution plate. Automated liquid handler was then used to stamp multiple assay plates using this dilution plate. Each well of the assay plate was then supplemented with a predetermined concentration of the second antimicrobial (compound B). The final concentration of DMSO was kept constant across the plate for each assay, not exceeding 3% (w/w).
To evaluate antifungal activity of the actives, freshly prepared A. brasiliensis spores were harvested and resuspended in Yeast and Malt Broth (YMB). The spore suspension was then added to the appropriate plates with the final density being 10^5 cfu/ml.
(§4) To evaluate antibacterial activity of the actives, freshly prepared S. aureus and B. cepacia cells were harvested and resuspended in Trypticase Soy Broth (TSB). The cell suspension was then added to the wells of the appropriate plates with the final cell density being 10^6 cfu/ml. Fungal plates were incubated at 28° C. for 4-5 days, prior to being evaluated. Bacterial plates were incubated for 48 hours at 35° C. prior to being evaluated.
(§5) Synergy Index (SI)=Qa/QA+Qb/QB • Qa is the MIC of compound A (HPB) in ppm, when compound A is being used in combination with compound B • QA is the MIC of compound A (HPB) in ppm, acting alone • Qb is the MIC of compound B in ppm, when the compound B is being used in combination with compound A • QB is the MIC of compound B in ppm, acting alone Each ratio Qa/QA and Qb/QB is sometimes referred to as Fractional Inhibitory Concentrations (FICs) of compounds A and B, respectively, when these two compounds are being used in combination with one another. The sum of FICs constitute the Synergy Index (SI). The synergistic effect is indicated if the Synergy Index is below one (SI<1). An additive effect is indicated if the Synergy Index is equal to one (SI=1). An antagonistic effect is indicated if synergy index is greater than one (SI>1). The lower the SI index the greater the synergy.

In assay [6] the test system is Burkholderia cepacia 25416. Described as above. The conditions noted are these: for Interaction / SI index (Synergy Index = Qa/QA+Qb/QB): HPB + compound B. As for the experimental part: as §2, §3, §4, §5
Assay [7] concerns Staphylococcus aureus 6538. The assay is described as above. The conditions noted are these: for Interaction / SI index (Synergy Index = Qa/QA+Qb/QB): HPB + compound B. The method, then: as §2, §3, §4, §5
[8] abbreviates: Aspergillus brasiliensis, 16404, compound B alone, read-out: Compound B (Qb): MIC of compound B acting alone.
[9] abbreviates: Burkholderia cepacia, 25416, B. cepacia, compound B alone, read-out: Compound B (Qb): MIC of compound B acting alone.
[10] abbreviates: Staphylococcus aureus, 6538, S. aureus, compound B alone, read-out: Compound B (QB): MIC of compound B acting alone.

Take `CC(=O)/C=C/c1ccc(O)cc1` [4-Hydroxybenzylideneacetone, (E)-4-(4-hydroxyphenyl)but-3-en-2-one]: the MIC in assay [1] stood at 1000 µg/mL (≈ 6.17 mM); in [2], 1000 µg/mL (≈ 6.17 mM); in the assay on Candida albicans 10231 it was 500 µg/mL (≈ 3.08 mM); with Escherichia coli 8739 it was 2000 µg/mL (≈ 12.3 mM); in assay [3], 4000 µg/mL (≈ 24.7 mM); in assay [4], 500 µg/mL (≈ 3.08 mM).
Regarding `CCCCCCCC(=O)NO` [Caprylhydroxamic acid], the MIC was found to be 250 µg/mL in assay [5] (setting [8]), 125 µg/mL in assay [6] (setting [9]) and 1000 µg/mL in assay [7] (setting [10]). Further, the Interaction result in assay [5] is reported as “Synergistic (The synergistic effect is indicated if the Synergy Index is below one (SI<1))”; in [6] (B. cepacia) it was “synergistic”; in assay [7] (S. aureus), “synergistic”. Moreover, the “SI index (Synergy Index = Qa/QA+Qb/QB)” value in [5] is on record as 0.5625; in assay [6] (B. cepacia) it was 0.75; in assay [7] (S. aureus), at most 0.625. For the same compound, the “Compound B (Qb): MIC of compound B when used in combination with HPB” value (shortened to “Compound B (Qb): MIC of compound B”) in assay [5] is 125 ppm; in assay [6] (B. cepacia), 31.3 ppm; in [7] (S. aureus), 125 ppm.
`COc1ccc(CCC(C)=O)cc1` [Raspberry ketone methyl ether, 4-(4-methoxyphenyl)butan-2-one]: the MIC was 1000 µg/mL (≈ 5.61 mM) in assay [1]; 1000 µg/mL (≈ 5.61 mM) in assay [2]; 2000 µg/mL (≈ 11.2 mM) in the assay with Candida albicans 10231; 2000 µg/mL (≈ 11.2 mM) in the assay with Escherichia coli 8739; 4000 µg/mL (≈ 22.4 mM) in assay [3]; 28000 µg/mL (≈ 157 mM) in assay [4].
Turning to `CC(=O)CCc1ccc(O)cc1` [Raspberry ketone, 4-(4-hydroxyphenyl) butan-2-one], the MIC in assay [1] came to 4000 µg/mL (≈ 24.4 mM); in assay [2], 2000 µg/mL (≈ 12.2 mM); in the assay on Candida albicans 10231 it was 4000 µg/mL (≈ 24.4 mM); in the assay on Escherichia coli 8739 it was 4000 µg/mL (≈ 24.4 mM); in assay [3] it was 4000 µg/mL (≈ 24.4 mM); in [4], 28000 µg/mL (≈ 171 mM). Moreover, the MIC is 4000 µg/mL in assay [5] (Aspergillus brasiliensis, 16404, HPB alone, read-out: HPB (QA): MIC of HPB acting alone); 2000 µg/mL in [6] (Burkholderia cepacia, 25416, B. cepacia, HPB alone, read-out: HPB (QA): MIC of HPB acting alone); at least 8000 µg/mL in assay [7] (Staphylococcus aureus, 6538, S. aureus, HPB alone, read-out: HPB (QA): MIC of HPB acting alone).
`CCCCCCCCCCCCCC[N+](C)(C)C.[Br-]` [Tetradecyl trimethyl ammonium bromide]: the MIC in assay [5] (setting [8]) came to 25 µg/mL; in [6] (setting [9]) it was 50 µg/mL; in [7] (setting [10]) it was 1.6 µg/mL. Further, the values for the Interaction result in assay [5], in assay [6] (B. cepacia) and in [7] (S. aureus) were “Synergistic (The synergistic effect is indicated if the Synergy Index is below one (SI<1))”, “synergistic” and “synergistic”, respectively. For the same compound, the “SI index (Synergy Index = Qa/QA+Qb/QB)” value in [5] was 0.375; in [6] (B. cepacia) it was 0.625; in assay [7] (S. aureus), at most 0.5. Further, the “Compound B (Qb): MIC of compound B” value in assay [5] turned out to be 3.1 ppm; in assay [6] (B. cepacia), 6.3 ppm; in [7] (S. aureus), 0.4 ppm.
For `COc1ccc(C=O)cc1OC` [Veratraldehyde], the MIC in assay [5] (setting [8]) is 2000 µg/mL; in [6] (Burkholderia cepacia, 25416, read-out: Compound B (Qb): MIC of compound B acting alone) it was 2000 µg/mL; in [7] (Staphylococcus aureus, 6538, read-out: Compound B (QB): MIC of compound B acting alone) it was at least 8000 µg/mL. Moreover, the Interaction entry in assay [5] is “Synergistic (The synergistic effect is indicated if the Synergy Index is below one (SI<1))”; in [6] (B. cepacia), “synergistic”; in [7] (S. aureus), “synergistic”. Also, the “SI index (Synergy Index = Qa/QA+Qb/QB)” value in assay [5] is 0.625; in assay [6] (B. cepacia) it was 0.75; in assay [7] (S. aureus), at most 0.625. Further, the “Compound B (Qb): MIC of compound B” value was 1,000 ppm in assay [5], 1000 ppm in assay [6] (B. cepacia) and 1,000 ppm in assay [7] (S. aureus).
